{"source": "patent US20030129168A1", "about": "“Expression of proteins for treating asthma via ligand mediated activation of their encoding genes” (ARIAD Gene Therapeutics, Inc., priority 1996, published 2003)", "key": {"[1]": {"assay": "Immunosuppressive activity"}, "[2]": {"test_system": "cells", "assay": "Toxicity in cell culture", "type": "cell-based"}, "[3]": {"test_system": "ZFHD1-FKBPx3 and FKBPx3-VP16 or FKBPx3-p65", "assay": "Dimerizer-dependent transcriptional activation (SEAP) in transiently transfected 293 cells", "type": "cell-based", "description": "293 cells were grown in D-MEM (Gibco BRL) supplemented with 10% Bovine Calf Serum. Cells in 35 mm dishes (2.5×10^5 cells/dish) were transiently transfected with use of calcium phosphate precipitation (Ausubel et. al., 1994). Each dish received 375 ng pZHWTx8SVSEAP; 12ng pCGNNZFHD1-FKBPx3 and 25ng pCGNNFKBPx3-VP16 or pCGNNFKBPx3-p65. Following transfection, 2 ml fresh media was added and supplemented with FK1012 to the desired concentration. After a 24 hour incubation […] aliquot of media was removed and assayed for SEAP activity as described (Spencer et. al., 1993).\nAn analgous experiment was conducted using a wholly synthetic dimerizer, AP1510, in place of FK1012. Like FK1012, AP1510 is a divalent FKBP-binder and is capable of dimerizing chimeric proteins which contain FKBP domains. In this experiment, 293 cells were grown in DMEM supplemented with 10% Bovine Calf Serum. Cells in 10 cm dishes were transiently transfected by calcium phosphate precipitation (Natesan and Gilman, 1995, Mol. Cell Biol, 15, 5975-5982). Each plate received 1 μg of pZHWTx8SVSEAP reporter, 50 ng pCGNNZFHD1-FKBP3×3, 50 ng pCGNNF3p65 or pCGNNF3VP16. Following transfection, 2 ml fresh media was added and supplemented with AP1510 to the desired concentration. After 24 hrs, 100 μl of the media was assayed for SEAP activity as described (Spencer et al, 1993)."}, "[4]": {"test_system": "FKBP12-containing fusion proteins", "assay": "Gene regulation applications of dimerizer (SEAP or hGH reporter systems)", "type": "cell-based", "settings": "for transcription activation with stably integrated constructs: cells in which the transcription factor and reporter gene constructs are all stably integrated", "description": "After overnight incubation (or longer), assay for target gene expression.\nSecreted alkaline phosphatase activity can be easily measured from the supernatant of appropriately transfected cells using fluorescence-(see (10)), or chemiluminescence-(Tropix, Bedford, Mass.) based assays. Samples to be tested should first be incubated at 65° C. for 1 hour to inactivate endogenous alkaline phosphatase activity."}, "[5]": {"assay": "Solubility of AP1510 in culture medium", "type": "physicochemical", "settings": "aqueous buffer, kinetic from ethanol stock; serial dilution in (aqueous) culture medium; read-out: highest concentration ensuring complete solubility", "description": "In the latter case it is recommended that the highest concentration not exceed 5 uM, to ensure complete solubility in the (aqueous) medium. […]"}, "[6]": {"test_system": "myristoylated chimeric CD3/FKBP12 (MZF3E) receptor", "assay": "FK1012 activation of myristoylated chimeric CD3/FKBP12 (MZF3E) receptor, NFAT SEAP reporter in Jurkat T cells", "type": "cell-based, human", "excerpt": "In an illustrative case, this was accomplished by creating an intracellular receptor comprised of a small fragment of Src sufficient for posttranslational myristoylation (M), the cytoplasmic tail of zeta (Z; a component of the […] was also used), three consecutive FKBP12s (F3) and a flu epitope tag (E). […] The promoter of the SEAP reporter gene was constructed to be transcriptionally activated by nuclear factor of activated T cells (NFAT), which is assembled in the nucleus following TCR-signaling.\nSpecifically, 5 μg of the eukaryotic expression vector, pBJ5, containing a myristoylated chimeric receptor was co-transfected with 4 μg NFAT-SX. MZE, MZF1E, MZF2E and MZF3E contain 0, 1, 2, or 3 copies of FKBP12, respectively, downstream of a myristoylated CD3 cytoplasmic domain (see FIG. 2 of PCT/US94/01617). As a control, 5 μg of pBJ5 was used in a parallel transfection. After 24 hours, aliquots of each transfection containing approximately 10^5 cells were incubated with log dilutions of the drug, FK1012B, as indicated. As a positive control and to control for transfection efficiency, ionomycin (1 μm) and PMA (25 ng/ml) were added to aliquots from each transfection. After an additional 12 hour incubation, the supernatants were assayed for alkaline phosphatase activity and these activities were expressed relative to that of the positive control samples. […] Compare FIGS. 7 and 8 of PCT/US94/01617."}, "[7]": {"test_system": "MZF3Eflu and MZF3Eflag", "assay": "Coimmunoprecipitation of epitope-tagged chimeras in Jurkat T cells (in vivo FK1012-induced protein dimerization)", "type": "cell-based, human", "description": "The following experiments confirmed that intracellular aggregation of the MZF3E receptor is indeed induced by the FK1012. The influenza haemagglutinin epitope-tag (flu) of the MZF3E-construct was exchanged with a different epitope-tag (flag-M2). The closely related chimeras, MZF3Eflu and MZF3Eflag, were coexpressed in Jurkat T cells. Immunoprecipitation experiments using anti-Flag-antibodies coupled to agarose beads were performed after the cells were treated with FK1012A. […] In absence of FK1012A, no coimmunoprecipitation of MZF3Eflu is observed. […] This reflects the requirement for aggregation observed with both the endogenous T cell receptor and our artificial receptor MZF3E."}, "[8]": {"test_system": "zeta-chain", "assay": "In vitro kinase assay after immunoprecipitation, Jurkat cells stably transfected with MZF3E", "type": "cell-based, human"}, "[9]": {"test_system": "ZFHD1-FKBPx3 and FRAP-p65", "assay": "Rapamycin-dependent hGH expression in transfected HT1080 cells in culture", "type": "cell-based", "settings": "HT1080 cells in cell culture", "description": "(§1) Using the approach described in Example 7, constructs were prepared encoding the ZFHD1-FKBPx3 fusion protein, a second fusion protein containing the FKBP:rapaymcin binding (“FRB”) region of FRAP linked to the p6^5 activation domain, and a reporter cassette containing a gene encoding human growth hormone linked to multiple ZFHD1 binding sites. The natural product, rapamycin, forms a ternary complex with FKBP12 and FRAP. Similarly, rapamycin is capable of binding to one or more of the FKBP domains and FRAP FRB domains of the fusion proteins."}, "[10]": {"test_system": "ZFHD1-FKBPx3 and FRAP-p65", "assay": "Rapamycin-dependent hGH expression in nu/nu mice implanted with transfected cells", "type": "in vivo", "settings": "rapamycin i.v. 10-10,000 μg/kg, serum 17 hours after administration", "description": "as §1\n2×10^6 cells from the transfected […] culture were administered to nu/nu mice by intramuscular injection. Following cell implantation, rapamycin was administered i.v. over a range of doses (from 10-10,000 μg/kg). Serum samples were collected from the mice 17 hours after rapamycin administration. Control groups consisted of mice that received no cells but 1.0 mg/kg rapamycin (i.v.) as well as mice that received the cells but no rapamycin."}, "[11]": {"target": "T1, FKBP12 (Homo sapiens, UniProt P62942)", "T1 sequence (P62942 whole entry, the tested form may be a part)": "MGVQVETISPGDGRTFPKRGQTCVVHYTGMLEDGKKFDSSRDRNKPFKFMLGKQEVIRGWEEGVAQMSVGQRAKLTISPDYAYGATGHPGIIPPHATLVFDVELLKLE", "assay": "FK1012 binding affinity and stoichiometry", "settings": "linker positioned in the calcineurin binding domain of FK506"}, "[12]": {"test_system": "Jurkat cells stably transfected with MZF3E", "assay": "Protein-tyrosine phosphorylation in whole cell lysates (alpha-phosphotyrosine antibodies)", "type": "cell-based, human", "settings": "whole cell lysates at varying times after stimulation", "excerpt": "The intracellular domains of the TCR, CD3 and zeta-chains interact with cytoplasmic protein tyrosine kinases following antigen stimulation. Specific members of the Src family (lck and/or fyn) phosphorylate one or more tyrosine residues of activation motifs within these intracellular domains (tyrosine activation motif, TAM). The tyrosine kinase ZAP-70 is recruited (via its two SH2 domains) to the tyrosine phosphorylated T-cell-receptor, activated, and is likely to be involved in the further downstream activation of phospholipase C. […] Tyrosine phosphorylation after treatment of cells with either anti-CD3 MAb or FK1012 was detected using monoclonal alpha-phosphotyrosine antibodies. Whole cell lysates were analysed at varying times after stimulation. […] The pattern consisted of a major band of 70 kDa, probably ZAP-70, and minor bands of 120 kDa, 62 kDa, 55 kDa and 42 kDa."}, "[13]": {"target": "T1, FKBP12", "settings": "2:1 stoichiometry, cited from earlier work"}, "[14]": {"test_system": "calcineurin-mediated TCR signaling", "settings": "cited from earlier work"}, "[15]": {"test_system": "cells", "settings": "in cell culture; cited from earlier work"}, "[16]": {"settings": "in vivo"}}, "note": "Like-named read-outs stand apart in the source and are kept apart here.", "data": [{"compound": "CCC(C)(C)C(=O)C(=O)N1CCCC[C@H]1C(=O)O[C@H](CCc1ccc(OC)c(OC)c1)c1cccc(OCC(=O)NCCNC(=O)COc2cccc([C@@H](CCc3ccc(OC)c(OC)c3)OC(=O)[C@@H]3CCCCN3C(=O)C(=O)C(C)(C)CC)c2)c1", "note": "[AP1510]", "values": [{"measurement": "immunosuppressive activity", "setting": "[1]", "result": "no immunosuppressive activity"}, {"measurement": "toxicity to cells", "setting": "[2]", "result": "non-toxic to cells"}, {"measurement": "dimerizer-dependent transcriptional activation", "setting": "[3]; 24 hrs", "result": "supports synthetic dimerizer-dependent transcriptional activation"}, {"measurement": "transcription activation with stably integrated constructs", "setting": "[4]", "result": "activates transcription efficiently"}, {"measurement": "concentration at which expression becomes detectable", "setting": "[4]; gene regulation applications", "result": "approximately 10 nM"}, {"measurement": "concentration at which expression peaks", "setting": "[4]; gene regulation applications", "result": "approximately 100 nM"}, {"measurement": "transcription activation compared with FK1012", "setting": "[4]; gene regulation applications", "result": "activates transcription at lower concentrations and to a higher level than PK1012"}, {"measurement": "solubility", "setting": "[5]", "result": "≤ 5", "unit": "µM"}]}, {"compound": "CO[C@H]1C[C@@H](C)C/C(C)=C/[C@@H](CCOC(=O)NCc2ccccc2)C(=O)C[C@H](O)[C@@H](C)[C@@H](/C(C)=C/[C@@H]2CC[C@@H](O)[C@H](OC)C2)OC(=O)[C@@H]2CCCCN2C(=O)C(=O)[C@]2(O)O[C@H]1[C@@H](OC)C[C@H]2C", "note": "[FK506-M]", "values": [{"measurement": "termination of FK1012-induced signaling", "setting": "[6]", "result": "can be terminated by a deaggregation process"}, {"measurement": "toxicity to cells", "setting": "[2]", "result": "nontoxic"}]}, {"compound": "CO[C@H]1C[C@@H](C)C/C(C)=C/[C@@H](CCOC(=O)NCc2ccc(CNC(=O)OCC[C@@H]3/C=C(\\C)C[C@H](C)C[C@H](OC)[C@H]4O[C@@](O)(C(=O)C(=O)N5CCCC[C@H]5C(=O)O[C@H](/C(C)=C/[C@@H]5CC[C@@H](O)[C@H](OC)C5)[C@H](C)[C@@H](O)CC3=O)[C@H](C)C[C@@H]4OC)cc2)C(=O)C[C@H](O)[C@@H](C)[C@@H](/C(C)=C/[C@@H]2CC[C@@H](O)[C@H](OC)C2)OC(=O)[C@@H]2CCCCN2C(=O)C(=O)[C@]2(O)O[C@H]1[C@@H](OC)C[C@H]2C", "note": "[FK1012]", "values": [{"measurement": "dimerization of FKBP monomer constructs MZF1Eflu and MZF1Eflag", "setting": "[7]", "result": "also dimerized by FK1012A"}, {"measurement": "coimmunoprecipitation of MZF3Eflu with MZF3Eflag", "setting": "[7]; FK1012A 1 μM, anti-Flag agarose beads", "result": "is coimmunoprecipitated with MZF^3Eflag"}, {"measurement": "recruitment of kinase activity to the zeta-chain", "setting": "[8]", "result": "resulted in the recruitment of kinase activity to the zeta-chain"}]}, {"compound": "CO[C@H]1C[C@@H]2CC[C@@H](C)[C@@](O)(O2)C(=O)C(=O)N2CCCC[C@H]2C(=O)O[C@H]([C@H](C)C[C@@H]2CC[C@@H](O)[C@H](OC)C2)CC(=O)[C@H](C)/C=C(\\C)[C@@H](O)[C@@H](OC)C(=O)[C@H](C)C[C@H](C)/C=C/C=C/C=C/1C", "note": "[rapamycin]", "values": [{"measurement": "rapamycin-dependent expression of the hGH gene", "setting": "[9]", "result": "support rapamycin-dependent expression of the hGH gene in cell culture"}, {"measurement": "expression of hGH (circulating hGH)", "setting": "[10]", "result": "Dose-responsive expression of hGH was observed"}]}, {"compound": "FK1012", "values": [{"measurement": "EC50", "setting": "[6]; MZF3E in human (Jurkat) T cells, NFAT-driven SEAP reporter, read-out: EC50, secretion of alkaline phosphatase (SEAP)", "result": 50, "unit": "nM"}, {"measurement": "FKBP12 binding", "setting": "[11]", "result": "leaving FKBP12 binding unaffected"}, {"measurement": "immunosuppressive activity", "setting": "[1]", "result": "abolishes immunosuppressive activity"}, {"measurement": "pattern of tyrosine-phosphorylated proteins", "setting": "[12]", "result": "A similar pattern of tyrosine-phosphorylated proteins was observed"}, {"measurement": "concentration of peak transcriptional activation", "setting": "[3]; 24 hour incubation", "result": 100, "unit": "nM"}, {"measurement": "transcription activation with stably integrated constructs", "setting": "[4]", "result": "poor"}, {"measurement": "Kd", "setting": "[13]; first binding event, read-out: Kd(1)", "result": 0.1, "unit": "nM"}, {"measurement": "Kd", "setting": "[13]; second binding event, read-out: Kd(2)", "result": 0.8, "unit": "nM"}, {"measurement": "inhibition of calcineurin-mediated TCR signaling / signalling pathways", "setting": "[14]", "result": "not inhibit calcineurin-mediated TCR signaling"}, {"measurement": "toxic (not toxic up to)", "setting": "[15]", "result": "> 0.1", "unit": "mM"}]}, {"compound": "hGH: human growth hormone", "values": [{"measurement": "hGH clearance half-life", "setting": "[16]", "result": "less than 2 minutes"}, {"measurement": "time to undetectable hGH levels", "setting": "[16]", "result": "≤ 30", "unit": "min"}]}]}
